Source: US20220339179A1, “TREATMENT OF HR DEFICIENT CANCER” (THE FRANCIS CRICK INSTITUTE LIMITED, priority 2019, published 2022)

Tests used:
[1] = test system: SUM149 WT (revertant) cells; assay: Cell viability assay, SUM149 WT (revertant) cells; format: cell-based, human; details: hmdU with DNPH1i 0.5 μM or olaparib, 8 days
Description: (§1) For analysis of cell viability following exposure to olaparib (Selleckchem), deoxyribonucleosides and DNPH1i (N6-benzyladenosine, Carbosynth), cells were seeded in 96-well plates at a density of 100-500 cells per well. Twenty-four hours post-seeding, drug treatments were initiated, and cells were continuously exposed until termination of the experiment. Cell viability was measured using CellTiter-Glo (Promega). The surviving fractions were measured, and drug sensitivity curves were plotted using GraphPad Prism. The following nucleosides were purchased from commercial sources: dU (2′-deoxyuridine), hdU (5-hydroxy-2′-deoxyuridine), hmdU (5-hydroxymethyl-2′-deoxyuridine), mdC (5-methyl-2′-deoxycytidine), hmdC (5-hydroxymethyl-2′-deoxycytidine), cadC (5-carboxy-2-deoxycytidine), fodC (5-formyl-2-deoxycytidine), dl (2′-deoxyinosine), dX (2′-deoxyxanthosine), 8odG (8-oxo-2′-deoxyguanosine), hmU (5 hydroxymethyluridine), hmC (5-hydroxymethyl-cytidine). fodU (5-formyl-2′-deoxyuridine) was synthesized as previously described (Guo et al Org. Biomol. Chem. 11, 1610-1613 (2013).

DCTD k/o cell lines = assay: Cell viability, DCTD k/o cell lines; format: cell-based
Description: as §1

[2] = test system: SUM149 BRCA1mut (parental) cells; assay: Cell viability assay, SUM149 BRCA1mut (parental) cells; format: cell-based, human; details: 8 days
Description: as §1

[3] = test system: eHAP MUS81−/−DNPH1−/− cells; assay: Cell viability assay (CellTiter-Glo), eHAP MUS81−/−DNPH1−/− cells; format: cell-based, human; details: nucleoside 200 nM, 6 days, vs MUS81 k/o
Description: as §1

[4] = test system: SUM149 BRCA1mut/53BP1−/− cells; assay: Cell viability assay, SUM149 BRCA1mut/53BP1−/− cells; format: cell-based, human; details: PARPi-resistant cells; hmdU 2 μM + olaparib; ratio of EC50 values
[5] = test system: DLD1 WT, BRCA2 and DNPH1 single knock-out cell lines; assay: Cell viability assay, DLD1 WT and single knock-out cells; format: cell-based; details: highest dose tested
Description: as §1

DLD1 BRCA2−/− cells = assay: Cell viability assay, DLD1 BRCA2−/− cells; format: cell-based; details: olaparib 10 nM or hmdU 2 μM, 10 days
Description: as §1

eHAP MUS81−/− cells = assay: Cell viability assay (CellTiter-Glo), eHAP MUS81−/− cells; format: cell-based, human; details: single agent
Description: as §1

[6] = test system: SUM149 BRCA1mut/PARP1−/− cells; assay: Cell viability assay, SUM149 BRCA1mut/PARP1−/− cells; format: cell-based, human; details: PARPi-resistant cells; hmdU 2 μM + olaparib; ratio of EC50 values
[7] = test system: BRCA2/DNPH1 double knock-out cell lines (DLD1); assay: Cell viability assay, DLD1 BRCA2/DNPH1 double knock-out cells; format: cell-based; details: absence of a PARP inhibitor; two independent double knock-out lines
Description: as §1

[8] = test system: eHAP WT and DNPH1 k/o cells; assay: Nucleoside composition of genomic DNA by LC-MS; format: cell-based, human; details: cells treated with exogenous hmdU; DNPH1 k/o vs WT
Description: Cells (5×10^7) were collected and DNA extracted using Gentra Puregene Cell Kit (Qiagen) supplemented with RNAse (Qiagen) and 100 mM tetrahydrouridine (Merck). DNA was digested to mononucleosides by modification of a published protocol (41). Briefly, reactions were carried out in […] buffer containing […] DNA, 50 mM Tris pH 9.0, 20 mM NaCl, 5 mM MgCl2, 1 kU Benzonase, 1 U phosphodiesterase I and 10 U FastAP alkaline phosphatase for 48 hrs at 37° C. The samples were then precipitated with chloroform and labelled standards of deoxyadenosine (dA), deoxycytidine (dC), deoxyguanosine (dG) and deoxythymidine (dT) were spiked for normalization of the signal response from modified deoxynucleosides. Polar phases were analyzed by LC-MS/MS using a using a reverse phase column (100×2.1 mm, 3 μm, Fortis C18, Fortis Technologies) on a Dionex UltiMate LC system coupled to a TSQ Quantiva™ Triple Quadrupole (Thermo Scientific) mass spectrometer with a HESI 11 (heated electrospray ionization) source. The mobile phases consisted of water containing 0.1% acetic acid (mobile phase A) and acetonitrile (mobile phase B). A gradient of 12 min 0-12% B and 1 min 12-60% B was used for the separation of all the modified nucleosides. […]

[9] = test system: PARP1 chromatin association in eHAP SMUG1−/− cells; assay: PARP trapping assay (chromatin fractionation), eHAP SMUG1−/− cells; format: cell-based, human; details: MMS 0.01% then olaparib 10 μM 4 h
Description: Briefly, 500.000 cells were seeded onto six-well plates, and treated with 350 nM hmdU or 0.01% MMS for 24 hours at which point cells were either left untreated or treated with 10 μM olaparib for 4 h. Cells were fractionated with the Subcellular Protein Fractionation kit for Cultured Cells (ThermoFisher #78840) according to the manufacturer's instructions. Soluble and chromatin fractions were analysed by immunoblotting for PARP1 (Cell Signaling #9542, rabbit) and yH2AX (Millipore, JBW301) antibodies. Incubation with primary antibody was followed by incubation with a horseradish peroxidase-conjugated secondary antibody and chemiluminescent detection of proteins (Amersham Pharmacia, Cardiff, UK).

Structure (SMILES) | effect of treatment on isogenic WT cells [1] | resistance of DCTD k/o cells to nucleoside treatment (DCTD k/o cell lines) | synthetic lethality of hmdU with DNPH1 inhibition ([2]; DNPH1i 0.5 μM) | expansion of the therapeutic window of olaparib by addition of hmdU ([2]; hmdU 2 μM + olaparib vs olaparib alone, ratio of EC50 values revertant vs BRCA1mut) [fold] | effect on viability, agent alone ([2]; olaparib 250 nM or hmdU 2 μM) | sensitivity of MUS81/DNPH1 k/o cells to nucleoside treatment (cell viability) [3] | expansion of the therapeutic window of olaparib by hmdU [4] [fold] | sensitivity to hmdU [5] | effect on viability, agent alone (DLD1 BRCA2−/− cells) | effect on viability, agent alone (eHAP MUS81−/− cells) | expansion of the therapeutic window of olaparib by hmdU [6] [fold] | cells killed by hmdU [7] | increase in genomic hmdU in DNPH1 k/o cells after hmdU treatment [8] [fold] | difference in PARP trapping or DNA damage signaling between WT and SMUG1-deficient cells [9]
O=c1[nH]c(=O)n([C@H]2C[C@H](O)[C@@H](CO)O2)cc1CO [hmdU, 5-hydroxymethyl-2′-deoxyuridine] | unaffected | not | to the same extent as Olaparib alone | 4 | limited effect on viability | hypersensitive | 3 | resistant to the highest dose tested | limited effect on viability | no effect on viability | 3 | over 95% | 3 | –
COS(C)(=O)=O [MMS, methyl methanesulfonate] | – | – | – | – | – | – | – | – | – | – | – | – | – | did not observe any difference
